Experiments:
human CYP11B2 = molecular target: T1, human CYP11B2 (Homo sapiens, UniProt P19099); experiment: IC50 vs CYP11B2 by measurement of aldosterone synthesis in V79 cells; type: cell-based; conditions: V79 cells expressing human CYP11B2, 750 nM DOC, aldosterone HTRF
T1 construct: expressed in transfected cells
T1 sequence (P19099 25-503): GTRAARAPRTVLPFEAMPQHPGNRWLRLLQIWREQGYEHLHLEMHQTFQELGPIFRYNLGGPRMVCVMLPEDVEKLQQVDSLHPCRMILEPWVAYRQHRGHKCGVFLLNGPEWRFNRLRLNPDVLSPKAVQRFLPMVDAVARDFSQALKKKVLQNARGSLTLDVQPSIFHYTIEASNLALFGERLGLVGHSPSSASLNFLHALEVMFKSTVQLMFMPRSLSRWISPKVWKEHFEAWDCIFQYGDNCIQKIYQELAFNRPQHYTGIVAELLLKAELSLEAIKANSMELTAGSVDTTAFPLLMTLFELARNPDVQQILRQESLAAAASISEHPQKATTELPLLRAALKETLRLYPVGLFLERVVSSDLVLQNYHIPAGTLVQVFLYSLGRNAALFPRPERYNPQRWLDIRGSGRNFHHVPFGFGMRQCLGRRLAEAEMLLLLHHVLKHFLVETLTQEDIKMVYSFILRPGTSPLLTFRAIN
Procedure: (§1) This assay was performed in a standard 384-well plate design using cultured V79 cells stably expressing human CYP11B1 or human CYP11B2. Test compounds at 10 concentrations (for example, 10000, 3333.3, 1111.1, 370.4, 123.5, 41.2, 13.7, 4.6, 1.5 and 0.5 nM) were added in 384-well plate after the cell-seeding procedure. The incubation substrate contains 1500 nM RSS for CYP11B1 assay/750 nM DOC for CYP11B2 assay. The Cortisol/Aldosterone production of cell culture supernatant was determined by Cortisol/Aldosterone HTRF kit after for about 15 hours incubation at RT (protect from light). IC50 (nM) values were calculated from the percent inhibition observed for each test compound at 10 concentrations.
(§2) The assay plate was read using Envision (Perkin Elmer, Waltham, Mass.) at 665 nm and 590 nm (using Filter Barcode of 217#, 205#; Mirror Barcode of 446#).
(§3) Data are analyzed using Assay Data Analyzer. All ratio data (665 nm/590 nm) are back calculated according to the standard curve, resulting in Cortisol/Aldosterone concentrations. IC50 (nM) values are reported as the Inflection Point (IP) of a four parameter fit of the titration data.
(§4) The following equation was used to calculate the % inhibition: % Activity=100×{1−(Sample_back calculated Cortisol/Aldosterone concentration−LC_back calculated Cortisol/Aldosterone concentration)/(HC_back calculated Cortisol/Aldosterone concentration−LC_back calculated Cortisol/Aldosterone concentration)} Curve Fitting: Four Parameter Logistic: […]

CYP2D6 = molecular target: T2, CYP2D6 (Homo sapiens, UniProt P10635); experiment: Cocktail assay for CYPs in human liver microsomes, dextromethorphan O-demethylation (2D6); type: biochemical; conditions: 5 μM dextromethorphan, 10 min at 37° C.
T2 construct: 0.1 mg/mL protein human liver microsomes (BD Gentest); tissue BD Gentest; host or cells: human liver microsomes
Procedure: (§5) This assay was performed in a standard 96-well plate design. IC50 values were calculated from the percent inhibition observed for each test compound at 6 concentrations (for example, 0.0032, 0.016, 0.08, 0.4, 2 and 10 μM). The incubation substrate mix contains 10 μM phenacetin (1A2), 5 μM diclofenac (2C9), 30 μM mephenytoin (2C19), 5 μM dextromethorphan (2D6) and 2 μM midazolam (3A4), 0.1 mg/mL protein human liver microsomes (BD Gentest), 1 mM NAPDH, 3.3 mM MgCl2 and 100 mM potassium phosphate buffer (pH 7.4). The production of the metabolite of each probe substrate was determined after incubation for 10 min at 37° C. Quantitation of the metabolite peak area ratio against an internal standard (tolbutamide) was determined by LC/MS/MS analysis following acetonitrile treatment of the incubations.
(§6) Samples were analyzed in the MRM mode with a SCIEX API-4000 mass spectrometer (Applied Biosystems, Foster City, Calif.), with a Shimadzu LC-20 AD pump (Shimadzu corporation, Kyoto, JP) and a CTC PAL autosampler (Agilent Technologies, Switzerland). A Phenomenex, Luna, 5 μm, 100A, 2.00×30 mm HPLC column was used for the separation. The mobile phases were: (A) 0.1% formic acid in water and (B) 0.1% formic acid in acetonitrile. The binary gradient was as follows. AutoSampler: CTC PAL
(§7) The peak area ratio of the analyte to the internal standard was used to quantify the metabolite. The values of peak area ratios in the presence of test compound were compared to those of maximum or minimum controls and were expressed as % inhibition by interpolating between the maximum and minimum peak area ratios. Incubations with no inhibitor were defined as the maxima. The following equation was used to calculate the % inhibition: [1−[(X−Low control)/(High control−Low control)]]*100 For the IC50 calculation, SigmaPlot was used to plot the mean % inhibition versus the test compound concentrations and for non-linear regression analysis of the data. Depending on the range of data points defining the inhibition curve, the data may have been fit to the 4-parameter logistic equation.

CYP3A4 = molecular target: T3, CYP3A4 (Homo sapiens, UniProt P08684); experiment: Cocktail assay for CYPs in human liver microsomes, midazolam 1′-hydroxylation (3A4); type: biochemical; conditions: 2 μM midazolam, 10 min at 37° C.
T3 construct: 0.1 mg/mL protein human liver microsomes (BD Gentest); tissue BD Gentest; host or cells: human liver microsomes
Procedure: as §5, §6, §7

human CYP11B1 = molecular target: T4, human CYP11B1 (Homo sapiens, UniProt P15538); experiment: IC50 vs CYP11B1 by measurement of cortisol synthesis in V79 cells; type: cell-based; conditions: V79 cells expressing human CYP11B1, 1500 nM RSS, cortisol HTRF
T4 construct: expressed in transfected cells
T4 sequence (P15538 25-503): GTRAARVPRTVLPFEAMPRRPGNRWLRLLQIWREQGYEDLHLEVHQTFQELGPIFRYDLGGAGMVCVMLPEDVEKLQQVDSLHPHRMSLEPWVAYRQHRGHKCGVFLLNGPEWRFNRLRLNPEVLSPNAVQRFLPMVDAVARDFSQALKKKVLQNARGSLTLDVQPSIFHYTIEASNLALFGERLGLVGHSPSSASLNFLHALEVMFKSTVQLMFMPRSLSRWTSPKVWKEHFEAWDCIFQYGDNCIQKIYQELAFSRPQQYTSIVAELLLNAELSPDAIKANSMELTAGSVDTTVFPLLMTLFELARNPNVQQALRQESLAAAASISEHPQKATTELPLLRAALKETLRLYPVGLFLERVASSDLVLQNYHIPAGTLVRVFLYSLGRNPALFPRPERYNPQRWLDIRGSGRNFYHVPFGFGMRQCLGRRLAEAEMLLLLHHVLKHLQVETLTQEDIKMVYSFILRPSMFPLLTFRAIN
Procedure: as §1, §2, §3, §4

CYP2C9 = molecular target: T5, CYP2C9 (Homo sapiens, UniProt P11712); experiment: Cocktail assay for CYPs in human liver microsomes, diclofenac 4′-hydroxylation (2C9); type: biochemical; conditions: 5 μM diclofenac, 10 min at 37° C.
T5 construct: 0.1 mg/mL protein human liver microsomes (BD Gentest); tissue BD Gentest; host or cells: human liver microsomes
Procedure: as §5, §6, §7

CYP2C19 = molecular target: T6, CYP2C19 (Homo sapiens, UniProt P33261); experiment: Cocktail assay for CYPs in human liver microsomes, mephenytoin 4′-hydroxylation (2C19); type: biochemical; conditions: 30 μM mephenytoin, 10 min at 37° C.
T6 construct: 0.1 mg/mL protein human liver microsomes (BD Gentest); tissue BD Gentest; host or cells: human liver microsomes
Procedure: as §5, §6, §7

CYP1A2 = molecular target: T7, CYP1A2 (Homo sapiens, UniProt P05177); experiment: Cocktail assay for CYPs in human liver microsomes, phenacetin O-deethylation (1A2); type: biochemical; conditions: 10 μM phenacetin, 10 min at 37° C.
T7 construct: 0.1 mg/mL protein human liver microsomes (BD Gentest); tissue BD Gentest; host or cells: human liver microsomes
T7 sequence (P05177 1-516): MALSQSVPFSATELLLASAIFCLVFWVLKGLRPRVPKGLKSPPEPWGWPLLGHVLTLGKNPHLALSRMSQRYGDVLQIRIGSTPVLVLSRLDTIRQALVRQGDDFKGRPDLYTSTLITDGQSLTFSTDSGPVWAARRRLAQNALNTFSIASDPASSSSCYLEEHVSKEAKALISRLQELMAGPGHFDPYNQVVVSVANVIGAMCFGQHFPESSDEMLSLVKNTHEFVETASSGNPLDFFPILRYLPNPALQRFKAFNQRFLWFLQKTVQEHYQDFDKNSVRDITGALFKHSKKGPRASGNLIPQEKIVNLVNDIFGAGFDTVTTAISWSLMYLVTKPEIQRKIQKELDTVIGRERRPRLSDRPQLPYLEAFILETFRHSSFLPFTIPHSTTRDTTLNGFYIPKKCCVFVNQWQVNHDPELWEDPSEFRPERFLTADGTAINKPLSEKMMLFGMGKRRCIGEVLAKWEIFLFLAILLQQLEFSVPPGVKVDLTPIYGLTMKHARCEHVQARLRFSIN
Procedure: as §5, §6, §7

T6 sequence (P33261 whole entry): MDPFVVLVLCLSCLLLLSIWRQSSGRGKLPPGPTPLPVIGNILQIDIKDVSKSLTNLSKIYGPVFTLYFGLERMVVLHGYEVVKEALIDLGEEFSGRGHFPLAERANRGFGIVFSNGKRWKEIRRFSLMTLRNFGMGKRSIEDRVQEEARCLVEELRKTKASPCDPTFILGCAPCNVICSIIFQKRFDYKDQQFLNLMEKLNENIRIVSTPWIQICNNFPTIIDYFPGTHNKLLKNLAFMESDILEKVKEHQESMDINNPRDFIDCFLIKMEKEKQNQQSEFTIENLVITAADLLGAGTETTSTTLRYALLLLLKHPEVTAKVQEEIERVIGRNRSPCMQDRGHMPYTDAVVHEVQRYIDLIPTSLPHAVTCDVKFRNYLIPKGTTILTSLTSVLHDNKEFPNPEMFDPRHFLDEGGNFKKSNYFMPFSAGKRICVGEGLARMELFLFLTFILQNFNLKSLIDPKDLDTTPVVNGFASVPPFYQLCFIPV
T2 sequence (P10635 whole entry): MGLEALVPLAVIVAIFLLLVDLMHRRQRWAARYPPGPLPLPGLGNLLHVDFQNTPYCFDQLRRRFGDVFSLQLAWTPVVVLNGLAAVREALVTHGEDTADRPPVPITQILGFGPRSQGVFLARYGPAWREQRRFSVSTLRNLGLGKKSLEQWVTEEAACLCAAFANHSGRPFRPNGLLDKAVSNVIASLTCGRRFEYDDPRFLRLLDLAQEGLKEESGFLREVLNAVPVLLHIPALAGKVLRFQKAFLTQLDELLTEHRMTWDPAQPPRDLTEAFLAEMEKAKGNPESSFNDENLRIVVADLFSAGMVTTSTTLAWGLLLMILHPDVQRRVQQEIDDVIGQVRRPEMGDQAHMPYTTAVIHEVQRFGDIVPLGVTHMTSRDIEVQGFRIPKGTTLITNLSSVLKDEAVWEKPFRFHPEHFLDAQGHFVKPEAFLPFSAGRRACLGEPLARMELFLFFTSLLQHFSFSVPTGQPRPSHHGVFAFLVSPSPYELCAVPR
T3 sequence (P08684 whole entry): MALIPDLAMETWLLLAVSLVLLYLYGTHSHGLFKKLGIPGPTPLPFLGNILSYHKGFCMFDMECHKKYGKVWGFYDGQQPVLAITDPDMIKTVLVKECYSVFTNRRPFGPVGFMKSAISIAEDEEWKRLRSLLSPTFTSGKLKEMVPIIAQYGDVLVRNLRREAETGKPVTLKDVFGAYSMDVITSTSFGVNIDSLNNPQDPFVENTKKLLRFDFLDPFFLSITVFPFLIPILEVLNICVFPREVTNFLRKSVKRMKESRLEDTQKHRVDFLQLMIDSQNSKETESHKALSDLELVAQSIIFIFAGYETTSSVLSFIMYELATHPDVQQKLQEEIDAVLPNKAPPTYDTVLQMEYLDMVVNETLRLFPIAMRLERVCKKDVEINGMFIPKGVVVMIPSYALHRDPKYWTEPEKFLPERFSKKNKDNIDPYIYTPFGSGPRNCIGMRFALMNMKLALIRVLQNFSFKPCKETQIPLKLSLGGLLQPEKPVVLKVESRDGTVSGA
T5 sequence (P11712 whole entry): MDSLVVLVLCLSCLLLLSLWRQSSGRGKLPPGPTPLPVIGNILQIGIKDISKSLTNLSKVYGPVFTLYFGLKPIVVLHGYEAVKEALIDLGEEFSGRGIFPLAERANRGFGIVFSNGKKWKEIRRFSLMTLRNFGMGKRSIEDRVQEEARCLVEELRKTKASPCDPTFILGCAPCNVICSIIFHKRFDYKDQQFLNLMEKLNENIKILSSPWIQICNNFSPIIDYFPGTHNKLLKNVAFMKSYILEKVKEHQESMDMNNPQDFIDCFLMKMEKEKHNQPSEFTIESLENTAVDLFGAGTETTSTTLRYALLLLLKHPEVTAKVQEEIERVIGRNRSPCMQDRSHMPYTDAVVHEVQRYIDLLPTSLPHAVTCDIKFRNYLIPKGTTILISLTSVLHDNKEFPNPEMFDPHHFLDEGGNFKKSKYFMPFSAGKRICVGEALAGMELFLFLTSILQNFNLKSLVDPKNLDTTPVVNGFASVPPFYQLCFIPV

Compound	IC50 (human CYP11B2) [µM]	IC50 (CYP2D6) [µM]	IC50 (CYP3A4) [µM]	IC50 (human CYP11B1) [µM]	IC50 (CYP2C9) [µM]	IC50 (CYP2C19) [µM]	IC50 (CYP1A2) [µM]
C[C@@H](c1ccccc1-c1ccc(F)cc1)n1cncc1C(=O)N1CCC2NC(=O)CO[C@@H]2C1 (mixture of isomers) [Compound 50]	> 50	8.08	0.0053	26.9	> 10	> 10	> 10
C[C@@H](c1ccccc1-c1ccc(F)cc1)n1cncc1C(=O)N1CCCC(N2CCC(C)(O)CC2)CC1 (single isomer, unassigned) [Compound 3a]	> 50	4.05	0.0073	37.4	> 10	> 10	> 10
C[C@@H](c1ccccc1-c1ccc(F)cc1)n1cncc1C(=O)N1CCCC(N2CCC(C)(O)CC2)CC1 (single isomer, unassigned) [Compound 3b]	42.6	2.39	0.0066	12.6	> 10	> 10	> 10
C[C@@H](c1ccccc1-c1ccc(F)cc1)n1cncc1C(=O)N1CCC(N2CCC(O)CC2)CC1 [Compound 1]	> 50	6.55	0.0068	33.5	> 10	> 10	> 10
C[C@@H](c1ccccc1-c1ccc(F)cc1)n1cncc1C(=O)N1CC[C@@H](N2CCC(O)CC2)[C@@H](F)C1 [Compound 2]	31	> 10	0.005	24.3	> 10	> 10	> 10
C[C@@H](c1ccccc1-c1ccc(F)cc1)n1cncc1C(=O)N1CC[C@H]2NCCO[C@@H]2C1 [Compound 4]	> 50	4.87	0.0058	13.9	> 10	> 10	> 10
C[C@@H](c1ccccc1-c1ccc(F)cc1)n1cncc1C(=O)N1CCn2c(nnc2C2CC2)C1 [Compound 5]	> 50	≥ 10	0.0061	42.6	> 10	7.57	> 10

Reference: US9981969B2, “Imidazole derivatives and methods of use thereof for improving the pharmacokinetics of a drug” (MERCK SHARP & DOHME CORP., priority 2013, dated 2018)
